Reference: patent US7838498B2, “Benzylic glycoside derivatives and methods of use” (Theracos, Inc., priority 2007, dated 2010)
pIC50: −log10 of the molar value.

How the values were obtained:
[1] = molecular target: T1, human SGLT2 (Homo sapiens, UniProt P31639); assay: Methyl-α-D-[U-14C]glucopyranoside uptake assay, cells stably expressing human SGLT2; assay type: cell-based; conditions: HEK293.ETN cells expressing human SGLT2, 1.5 h incubation
T1 construct: A full-length cDNA clone expressing human SGLT2 (GenScript Corporation) was subcloned
T1 sequence (P31639 1-672): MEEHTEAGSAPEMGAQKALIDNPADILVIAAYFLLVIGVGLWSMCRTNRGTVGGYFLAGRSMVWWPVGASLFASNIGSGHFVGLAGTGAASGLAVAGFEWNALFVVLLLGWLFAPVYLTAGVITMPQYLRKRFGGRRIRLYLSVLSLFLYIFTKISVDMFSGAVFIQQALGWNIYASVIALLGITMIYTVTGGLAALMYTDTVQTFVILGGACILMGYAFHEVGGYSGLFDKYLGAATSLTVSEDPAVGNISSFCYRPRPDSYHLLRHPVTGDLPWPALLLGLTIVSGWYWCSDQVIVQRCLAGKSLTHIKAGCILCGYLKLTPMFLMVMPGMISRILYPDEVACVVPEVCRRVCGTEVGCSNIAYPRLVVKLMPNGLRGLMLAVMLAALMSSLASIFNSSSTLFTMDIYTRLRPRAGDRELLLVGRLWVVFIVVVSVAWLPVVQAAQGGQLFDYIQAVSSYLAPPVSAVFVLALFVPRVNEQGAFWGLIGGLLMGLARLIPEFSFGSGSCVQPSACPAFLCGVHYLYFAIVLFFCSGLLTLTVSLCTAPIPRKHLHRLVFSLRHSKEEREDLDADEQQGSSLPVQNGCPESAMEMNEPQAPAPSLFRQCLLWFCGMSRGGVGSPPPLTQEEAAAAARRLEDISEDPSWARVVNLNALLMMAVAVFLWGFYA
Source text: A full-length cDNA clone expressing human SGLT2 (GenScript Corporation) was subcloned into […] and Not I sites of pEAK15 expression vector. Clones harboring the cDNA inserts were identified by restriction analysis.
Plasmid containing human SGLT2 was linearized with Nsi I and purified by agarose gel electrophoresis. Using Lipofectamine 2000 Transfection Reagent (Invitrogen Corporation), DNA was transfected into HEK293.ETN cells and cultured in Dulbecco's Modified Eagle Medium (DMEM) containing 10% fetal bovine serum (FBS) at 37° C. under 5% CO2 for 24 h. Transfectants were selected in the same growth medium supplemented with puromycin (Invitrogen Corporation) for two weeks. Puromycin-resistant cells were recovered and seeded on a fresh 96-well plate (single cell per well) and cultured in the presence of puromycin until cells became confluent. Puromycin-resistant clones were evaluated for SGLT2 activity in the methyl-α-D-[U-^14C]glucopyranoside uptake assay described below.
(§1) Cells expressing SGLT1 or SGLT2 were seeded on 96-well ScintiPlate scintillating plates (PerkinElmer, Inc.) in DMEM containing 10% FBS (1×10^5 cells per well in 100 μL medium) incubated at 37° C. under 5% CO2 for 48 h prior to the assay. Cells were washed twice with 150 μL of either sodium buffer (137 mM NaCl, 5.4 mM KCl, 2.8 mM CaCl2, 1.2 mM MgCl2, 10 mM tris(hydroxymethyl)aminomethane/N2-hydroxyethylpiperazine-N′-ethanesulfonic acid [Tris/Hepes], pH 7.2) or sodium-free buffer (137 mM N-methyl-glucamine, 5.4 mM KCl, 2.8 mM CaCl2, 1.2 mM MgCl2, 10 mM Tris/Hepes, pH 7.2). Test compound in 50 μL each of sodium or sodium-free buffer containing 40 μCi/L methyl-α-D-[U-^14C]glucopyranoside (Amersham Biosciences/GE Healthcare), either with (symbols in parentheses) or without (symbols without parentheses) 25% human serum, was added per well of a 96-well plate and incubated at 37° C. with shaking for either 2 h (SGLT1 assay) or 1.5 h (SGLT2 assay). Cells were washed twice with 150 μL of wash buffer (137 mM N-methylglucamine, 10 mM Tris/Hepes, pH 7.2) and methyl-α-D-[U-^14C]glucopyranoside uptake was quantitated using a TopCount scintillation counter (PerkinElmer, Inc.). Sodium-dependent glucopyranoside uptake was measured by subtracting the values obtained with sodium-free buffer from those obtained using sodium buffer (average of triplicate determinations).

[2] = molecular target: T2, human SGLT1 (Homo sapiens, UniProt P13866); assay: Methyl-α-D-[U-14C]glucopyranoside uptake assay, COS-7 cells expressing human SGLT1; assay type: cell-based; conditions: COS-7 cells expressing human SGLT1, 2 h incubation
T2 construct: Full-length human SGLT1 cDNA on pDream2.1 expression vector was obtained from GenScript Corporation; host or cells: COS-7 cells (American Type Culture Collection)
T2 sequence (P13866 1-664): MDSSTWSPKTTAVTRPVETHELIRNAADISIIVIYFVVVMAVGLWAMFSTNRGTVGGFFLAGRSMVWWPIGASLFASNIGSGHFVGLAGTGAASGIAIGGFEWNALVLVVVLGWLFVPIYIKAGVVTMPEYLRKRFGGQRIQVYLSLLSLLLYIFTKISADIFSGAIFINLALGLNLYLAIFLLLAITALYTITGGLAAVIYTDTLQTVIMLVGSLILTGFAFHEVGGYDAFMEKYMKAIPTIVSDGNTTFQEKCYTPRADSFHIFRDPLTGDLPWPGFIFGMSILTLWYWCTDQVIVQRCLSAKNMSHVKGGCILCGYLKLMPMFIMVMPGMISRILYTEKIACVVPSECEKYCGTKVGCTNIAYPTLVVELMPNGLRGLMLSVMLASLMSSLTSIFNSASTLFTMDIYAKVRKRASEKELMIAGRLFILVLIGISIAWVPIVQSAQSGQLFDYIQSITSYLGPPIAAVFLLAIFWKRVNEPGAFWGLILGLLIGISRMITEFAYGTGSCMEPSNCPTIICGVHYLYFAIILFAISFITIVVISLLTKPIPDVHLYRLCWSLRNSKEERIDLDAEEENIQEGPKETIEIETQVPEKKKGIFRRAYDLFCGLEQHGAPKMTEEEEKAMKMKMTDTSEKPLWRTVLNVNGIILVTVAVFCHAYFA
Description: Full-length human SGLT1 cDNA on pDream2.1 expression vector was obtained from GenScript Corporation and propagated in Escherichia coli strain DH5α using Luria-Bertani (LB) medium containing ampicillin. Plasmid DNA was isolated using the QIAGEN Plasmid Midi Kit (QIAGEN Inc.). […] Transfected cells were stored in DMEM containing 10% dimethyl sulfoxide (DMSO) at −80° C.
as §1

[3] = with 25% human serum (symbols in parentheses)
[4] = without human serum (symbols without parentheses)

| Compound | pIC50 [1, 3] | pIC50 [2, 3] | pIC50 [1, 4] | pIC50 [2, 4] |
| --- | --- | --- | --- | --- |
| CC#CCOCCOc1cc(Cl)c(Cc2ccc(CC)cc2)cc1[C@@H]1O[C@H](CO)[C@@H](O)[C@H](O)[C@H]1O [Compound BF, (2S,3R,4R,5S,6R)-2-(2-(2-(but-2-ynyloxy)ethoxy)-4-chloro-5-(4-ethylbenzyl)phenyl)-6-(hydroxymethyl)tetrahydro-2H-pyran-3,4,5-triol] | > 6.00 | < 5.00 | – | – |
| C=CCOCc1cc(Cl)c(Cc2ccc(OCC)cc2)cc1[C@@H]1O[C@H](CO)[C@@H](O)[C@H](O)[C@H]1O [Compound AZ, (2S,3R,4R,5S,6R)-2-(2-(allyloxymethyl)-4-chloro-5-(4-ethoxybenzyl)phenyl)-6-(hydroxymethyl)tetrahydro-2H-pyran-3,4,5-triol] | – | – | > 6.00 | < 5.00 |
| CC#CCOCc1cc(Cl)c(Cc2ccc(O)cc2)cc1[C@@H]1O[C@H](CO)[C@@H](O)[C@H](O)[C@H]1O [Compound BC, (2S,3R,4R,5S,6R)-2-(2-((but-2-ynyloxy)methyl)-4-chloro-5-(4-hydroxybenzyl)phenyl)-6-(hydroxymethyl)tetrahydro-2H-pyran-3,4,5-triol] | > 6.00 | < 5.00 | – | – |
| CCOc1ccc(Cc2cc([C@@H]3O[C@H](CO)[C@@H](O)[C@H](O)[C@H]3O)c(CCOCCF)cc2Cl)cc1 [Compound BH, (2S,3R,4R,5S,6R)-2-(4-chloro-5-(4-ethoxybenzyl)-2-(2-(2-fluoroethoxy)ethyl)phenyl)-6-(hydroxymethyl)tetrahydro-2H-pyran-3,4,5-triol] | > 6.00 | 5.00 to 6.00 | – | – |
| CCc1ccc(Cc2cc([C@@H]3O[C@H](CO)[C@@H](O)[C@H](O)[C@H]3O)c(OCCOC(F)(F)F)cc2Cl)cc1 [Compound BQ, (2S,3R,4R,5S,6R)-2-(4-chloro-5-(4-ethylbenzyl)-2-(2-(trifluoromethoxy)ethoxy)phenyl)-6-(hydroxymethyl)tetrahydro-2H-pyran-3,4,5-triol] | > 6.00 | < 5.00 | – | – |
| CCc1ccc(Cc2cc([C@@H]3O[C@H](CO)[C@@H](O)[C@H](O)[C@H]3O)c(CCOCC(F)F)cc2Cl)cc1 [Compound AI, (2S,3R,4R,5S,6R)-2-(4-chloro-2-(2-(2,2-difluoroethoxy)ethyl)-5-(4-ethylbenzyl)phenyl)-6-(hydroxymethyl)tetrahydro-2H-pyran-3,4,5-triol] | – | – | > 6.00 | < 5.00 |
| C=CCOCc1cc(Cl)c(Cc2ccc(OCC=C)cc2)cc1[C@@H]1O[C@H](CO)[C@@H](O)[C@H](O)[C@H]1O [Compound BB, (2S,3R,4R,5S,6R)-2-(5-(4-(allyloxy)benzyl)-2-(allyloxymethyl)-4-chlorophenyl)-6-(hydroxymethyl)tetrahydro-2H-pyran-3,4,5-triol] | > 6.00 | < 5.00 | – | – |
| CCc1ccc(Cc2cc([C@@H]3O[C@H](CO)[C@@H](O)[C@H](O)[C@H]3O)c(CCOCC(F)(F)F)cc2Cl)cc1 [Compound AK, (2S,3R,4R,5S,6R)-2-(4-chloro-5-(4-ethylbenzyl)-2-(2-(2,2,2-trifluoroethoxy)ethyl)phenyl)-6-(hydroxymethyl)tetrahydro-2H-pyran-3,4,5-triol] | – | – | > 6.00 | < 5.00 |
| CCc1ccc(Cc2cc([C@@H]3O[C@H](CO)[C@@H](O)[C@H](O)[C@H]3O)c(OCCOCC(F)(F)F)cc2Cl)cc1 [Compound BS, (2S,3R,4R,5S,6R)-2-(4-chloro-5-(4-ethylbenzyl)-2-(2-(2,2,2-trifluoroethoxy)ethoxy)phenyl)-6-(hydroxymethyl)tetrahydro-2H-pyran-3,4,5-triol] | > 6.00 | < 5.00 | – | – |
| CC#CCOCCc1cc(Cl)c(Cc2ccc(CC)cc2)cc1[C@@H]1O[C@H](CO)[C@@H](O)[C@H](O)[C@H]1O [Compound AN, (2S,3R,4R,5S,6R)-2-(2-(2-(but-2-ynyloxy)ethyl)-4-chloro-5-(4-ethylbenzyl)phenyl)-6-(hydroxymethyl)tetrahydro-2H-pyran-3,4,5-triol] | – | – | > 6.00 | 5.00 to 6.00 |

The next lines start with the values.

| pIC50 [1, 3] | pIC50 [2, 3] | pIC50 [1, 4] | pIC50 [2, 4] | Compound |
| --- | --- | --- | --- | --- |
| – | – | > 6.00 | < 5.00 | CCc1ccc(Cc2cc([C@@H]3O[C@H](CO)[C@@H](O)[C@H](O)[C@H]3O)c(COCC(C)(F)F)cc2Cl)cc1 [Compound CB, (2S,3R,4R,5S,6R)-2-(4-chloro-2-((2,2-difluoropropoxy)methyl)-5-(4-ethylbenzyl)phenyl)-6-(hydroxymethyl)tetrahydro-2H-pyran-3,4,5-triol] |
| – | – | > 6.00 | < 5.00 | CCc1ccc(Cc2cc([C@@H]3O[C@H](CO)[C@@H](O)[C@H](O)[C@H]3O)c(COCCOC)cc2Cl)cc1 [Compound S, (2S,3R,4R,5S,6R)-2-(4-chloro-5-(4-ethylbenzyl)-2-((2-methoxyethoxy)methyl)phenyl)-6-(hydroxymethyl)tetrahydro-2H-pyran-3,4,5-triol] |
| – | – | > 6.00 | < 5.00 | C=CCOCc1cc(Cl)c(Cc2ccc(CC)cc2)cc1[C@@H]1O[C@H](CO)[C@@H](O)[C@H](O)[C@H]1O [Compound I, (2S,3R,4R,5S,6R)-2-(2-(allyloxymethyl)-4-chloro-5-(4-ethylbenzyl)phenyl)-6-(hydroxymethyl)tetrahydro-2H-pyran-3,4,5-triol] |
| – | – | > 6.00 | < 5.00 | C#CCOCc1cc(Cl)c(Cc2ccc(CC)cc2)cc1[C@@H]1O[C@H](CO)[C@@H](O)[C@H](O)[C@H]1O [Compound N, (2S,3R,4R,5S,6R)-2-(4-chloro-5-(4-ethylbenzyl)-2-((prop-2-ynyloxy)methyl)phenyl)-6-(hydroxymethyl)tetrahydro-2H-pyran-3,4,5-triol] |
| – | – | > 6.00 | < 5.00 | CCc1ccc(Cc2cc([C@@H]3O[C@H](CO)[C@@H](O)[C@H](O)[C@H]3O)c(COCC(C)=O)cc2Cl)cc1 [Compound K, 1-(5-chloro-4-(4-ethylbenzyl)-2-((2S,3R,4R,5S,6R)-3,4,5-trihydroxy-6-(hydroxymethyl)tetrahydro-2H-pyran-2-yl)benzyloxy)propan-2-one] |
